Measurements: patent US4663342A, “Pharmaceutical composition and method for immunopotentiation” (Zaidan Hojin Biseibutsu Kagaku Kenkyu Kai, priority 1984, dated 1987)

Legend:
[1] = tested on: CDF1 mice immunized with sheep red blood cells (SRBC); assay: Delayed Type Hypersensitivity (D.T.H.) footpad test in normal mice immunized with SRBC; assay type: in vivo; conditions: for Increase in footpad thickness: 24 h after SRBC challenge; for T/C (%): footpad thickness increase vs control = 100%
Procedure: Effect of actinonin on the cellular immunity was investigated by measuring the Delayed Type Hypersensitivity (D.T.H.) (see […] and T. E. Miller: "J. Exp. Med.", 139, 1529-1539 (1974)) using mice immunized with sheep red blood cells (SRBC) as the antigen inoculated to the footpad of the mice. Thus, 10^8 SRBC suspended in 0.05 ml of physiological saline was inoculated by subcutaneous injection into a subdermal site of a hind footpad of CDF1 mice (6 mice per group, female, 8-weeks old) to make immunization. At the time of this immunization, an aqueous solution containing 5 mg/kg, 0.5 mg/kg, 0.05 mg/kg or 0.005 mg/kg of actinonin was administered intraperitoneally at a single dose to each test mice. 4 Days after the immunization, 10^8 SRBC in 0.05 ml of physiological saline were injected subcutaneously into the other hind footpad of the test mice for secondary challenge of the D.T.H. response. 24 Hours after the challenge, the thickness (in mm) of the hind footpad having received the challenge of SRBC was measured with vernier caliper. At the same time, the thickness of footpad of control mice which had received the injection of the SRBC and physiological saline without the administration of the test compound was also measured in each mouse. The increase in footpad thickness of the animals treated was calculated by the following equation: [formula] The effect of actinonin on the DTH response was evaluated by the following equation: [formula] […] In this way, the cell-mediated immunity potentiating effect of the test compound was evaluated. For comparison purpose, bestatin was also tested in the same manner as above.

[2] = tested on: mice bearing Ascites Sarcoma 180 tumor; assay: D.T.H. response to picryl chloride (ear thickness) in tumor-bearing mice; assay type: in vivo; conditions: for Increase in ear thickness: 24 h after picryl chloride challenge; for T/C (%): ear thickness increase vs control = 100%
Procedure: In mice bearing Ascites Sarcoma 180 tumor, the effect of actinonin on the D.T.H. response to picryl chloride was investigated. 10^6 Cells of Ascites Sarcoma 180 were transplanted intraperitoneally into CDF1 mice (12-week-old, female, 5 mice per group). The day of this transplantation was designated as Day 0. […] Then, 5.0 mg/kg, 0.5 mg/kg, 0.05 mg/kg or 0.005 mg/kg of actinonin dissolved in physiological saline was orally administered once daily from Day 1 to Day 8, except that on Days 5 and 6 the test compound was not administered. During this period of Day 1 to Day 8, the control group of mice (untreated) was given physiological saline only. On day 8, the right ear was challenged with 20 μl of a 1% olive oil solution of picryl chloride which was absorbed to an absorbent cotton mass cut to a size of 10 mm×5 mm×1 mm. Twenty-four hours after the challenge, the thickness of the ear was measured with a dial gauge. On the other hand, the control animals (untreated) were challenged on Day 8 with picryl chloride and physiological saline in accordance with the same procedure, but without having been treated with the test compound, and the thickness of the ear of the control animals was measured in the same way. The increase in the thickness of ear for the control group of mice was evaluated to be 100%. The increase (T) in the thickness of the ear for the group of mice treated with the test compound was compared with that (C) for the control group of mice to evaluate the rate (T/C, %) of the increase in the thickness of the ear, whereby the cellular immunity-potentiating activity of the compound under test was estimated.

[3] = tested on: mice; assay: Acute toxicity test in mice by intravenous injection; assay type: in vivo; conditions: i.v. dosage of 400 mg/kg
Procedure: Acute toxicity tests in mice by intravenous injection have shown that no deaths are caused by the actinonin compound of the formula (I) at an i.v. dosage of 400 mg/kg. […] The actinonin compound of the formula (I) is therefore useful as an immunopotentiator and anti-tumor immunomodulator or as adjuvants to various chemotherapeutic agents for use in the treatment of carcinomas.

[4] = tested on: gram-positive bacteria; conditions: against gram-positive bacteria; cited from earlier work
[5] = 0.5 mg/kg i.p. single dose at immunization
[6] = 0.5 mg/kg orally once daily Day 1 to Day 8 (not Days 5, 6)

SMILES: CCCCC[C@H](CC(=O)NO)C(=O)N[C@H](C(=O)N1CCC[C@H]1CO)C(C)C [Actinonin]
- Increase in footpad thickness ([1]; 0.005 mg/kg i.p. single dose at immunization): 9.2 ± 1.15 × 0.1 mm
- T/C (%) ([1]; 0.005 mg/kg i.p. single dose): 107%
- Increase in footpad thickness ([1]; 0.05 mg/kg i.p. single dose at immunization): 10.4 ± 1.40 × 0.1 mm
- T/C (%) ([1]; 0.05 mg/kg i.p. single dose): 121%
- Increase in footpad thickness [1, 5]: 11.4 ± 1.80 × 0.1 mm
- T/C (%) ([1]; 0.5 mg/kg i.p. single dose): 133%
- Increase in footpad thickness ([1]; 5 mg/kg i.p. single dose at immunization): 11.9 ± 1.44 × 0.1 mm
- T/C (%) ([1]; 5 mg/kg i.p. single dose): 138%
- Increase in ear thickness ([2]; 0.005 mg/kg orally once daily Day 1 to Day 8 (not Days 5, 6)): 4.70 ± 0.67 × 10^-3 cm
- T/C (%) ([2]; 0.005 mg/kg orally once daily): 96.9%
- Increase in ear thickness ([2]; 0.05 mg/kg orally once daily Day 1 to Day 8 (not Days 5, 6)): 6.80 ± 0.84 × 10^-3 cm
- T/C (%) ([2]; 0.05 mg/kg orally once daily): 140.2%
- Increase in ear thickness [2, 6]: 7.08 ± 1.66 × 10^-3 cm
- T/C (%) ([2]; 0.5 mg/kg orally once daily): 146.0%
- Increase in ear thickness ([2]; 5 mg/kg orally once daily Day 1 to Day 8 (not Days 5, 6)): 4.60 ± 1.19 × 10^-3 cm
- T/C (%) ([2]; 5 mg/kg orally once daily): 94.8%
- Deaths in acute toxicity test [3]: no deaths
- Antibacterial activity [4]: exhibits antibacterial activity

SMILES: CC(C)C[C@H](NC(=O)[C@@H](O)[C@H](N)Cc1ccccc1)C(=O)O [Bestatin, reference compound]
- Increase in footpad thickness [1, 5]: 12.8 ± 1.47 × 0.1 mm
- T/C (%) ([1]; 0.5 mg/kg i.p. single dose): 149%
- Increase in ear thickness [2, 6]: 6.75 ± 1.51 × 10^-3 cm
- T/C (%) ([2]; 0.5 mg/kg orally once daily): 139.2%
